Measured values from patent US11053241B2, “TYK2 inhibitors and uses thereof” (Nimbus Lakshmi, Inc., priority 2018, dated 2021).

Target: human TYK2 (JH2domain-pseudokinase) (Homo sapiens (Human), UniProt P29597)
Assay: TYK2 JH2 Domain Binding Assay (KINOMEscan)
Settings: 11-point 3-fold dilution, top concentration 30,000 nM, duplicate
Method: Binding constants for compounds of the present invention against the JH2 domain were determined by the following protocol for a KINOMEscan® assay (DiscoveRx). A fusion protein of a partial length construct of human TYK2 (JH2domain-pseudokinase) (amino acids G556 to D888 based on reference sequence NP_003322.3) and the DNA binding domain of NFkB was expressed in transiently transfected HEK293 cells. From these HEK 293 cells, extracts were prepared in M-PER extraction buffer (Pierce) in the presence of Protease Inhibitor Cocktail Complete (Roche) and Phosphatase Inhibitor Cocktail Set II (Merck) per manufacturers' instructions. The TYK2(JH2domain-pseudokinase) fusion protein was labeled with a chimeric double-stranded DNA tag containing the NFkB binding site (5′-GGGAATTCCC-3′) fused to an amplicon for qPCR readout, which was added directly to the expression extract (the final concentration of DNA-tag in the binding reaction is 0.1 nM).
Streptavidin-coated magnetic beads (Dynal M280) were treated with a biotinylated small molecule ligand for 30 minutes at room temperature to generate affinity resins for the binding assays. The liganded beads were blocked with excess biotin and washed with blocking buffer (SeaBlock (Pierce), 1% BSA, 0.05% Tween 20, 1 mM DTT) to remove unbound ligand and to reduce nonspecific binding.
The binding reaction was assembled by combining 16 μl of DNA-tagged kinase extract, 3.8 μl liganded affinity beads, and 0.18 μl test compound (PBS/0.05% Tween 20/10 mM DTT/0.1% BSA/2 μg/ml sonicated salmon sperm DNA). Extracts were used directly in binding assays without any enzyme purification steps at a ≥10,000-fold overall stock dilution (final DNA-tagged enzyme concentration <0.1 nM). Extracts were loaded with DNA-tag and diluted into the binding reaction in a two step process. First extracts were diluted 1:100 in 1× binding buffer (PBS/0.05% Tween 20/10 mM DTT/0.1% BSA/2 μg/ml sonicated salmon sperm DNA) containing 10 nM DNA-tag. This dilution was allowed to equilibrate at room temperature for 15 minutes and then subsequently diluted 1:100 in 1× binding buffer. All reactions were performed in polypropylene 384-well plates. Each was a final volume of 0.02 mL. Assays were incubated with shaking for 1 hour at room temperature. Then the beads were pelleted and washed with wash buffer (1×PBS, 0.05% Tween 20) to remove displaced kinase and test compound. The washed based were re-suspended in elution buffer (1×PBS, 0.05% Tween 20, 0.5 μM non-biotinylated affinity ligand) and incubated at room temperature with shaking for 30 minutes. The kinase concentration in the eluates was measured by qPCR. qPCR reactions were assembled by adding 2.5 μL of kinase eluate to 7.5 μL of qPCR master mix containing 0.15 μM amplicon primers and 0.15 μM amplicon probe. The qPCR protocol consisted of a 10 minute hot start at 95° C., followed by 35 cycles of 95° C. for 15 seconds, 60° C. for 1 minute.
Test compounds were prepared as 111× stocks in 100% DMSO. Kd values were determined using an 11-point 3-fold compound dilution series with three DMSO control points. All compounds for Kd measurements are distributed by acoustic transfer (non-contact dispensing) in 100% DMSO. The compounds were then diluted directly into the assays such that the final concentration of DMSO was 0.9%. The Kd values were determined using a compound top concentration of 30,000 nM. Kd measurements were performed in duplicate.
Binding constants (Kds) were calculated with a standard dose-response curve using the Hill equation: […]
The Hill Slope was set to −1. Curves were fitted using a non-linear least square fit with the Levenberg-Marquardt algorithm (Levenberg, K., A method for the solution of certain non-linear problems in least squares, Q. Appl. Math. 2, 164-168 (1944)).

human TYK2 (JH2domain-pseudokinase), sequence (P29597 556-888): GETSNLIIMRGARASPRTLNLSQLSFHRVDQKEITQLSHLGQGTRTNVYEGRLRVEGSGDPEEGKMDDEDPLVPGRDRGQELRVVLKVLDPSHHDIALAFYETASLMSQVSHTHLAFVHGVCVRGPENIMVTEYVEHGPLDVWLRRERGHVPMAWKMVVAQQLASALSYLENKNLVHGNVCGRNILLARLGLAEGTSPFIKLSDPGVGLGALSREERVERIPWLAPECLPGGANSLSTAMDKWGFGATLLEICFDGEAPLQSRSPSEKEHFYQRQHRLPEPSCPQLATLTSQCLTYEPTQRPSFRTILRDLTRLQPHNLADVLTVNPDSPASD

Kd | SMILES
< 0.2 nM | CNC(=O)c1cnc(NC(=O)C2CC2)c2[nH]c(-c3cccc([C@H]4C[C@H](OC)C4)c3F)cc12 [Compound I-94, 7-(cyclopropanecarboxamido)-2-(2-fluoro-3-((1r,3r)-3-methoxycyclobutyl)phenyl)-N-methyl-1H-pyrrolo[2,3-c]pyridine-4-carboxamide]
< 0.2 nM | CNC(=O)c1cnc(NC(=O)C2CC2)c2[nH]c(-c3ccc(-c4nccn4C)cc3F)cc12 [Compound I-58, 7-(cyclopropanecarboxamido)-2-(2-fluoro-4-(1-methyl-1H-imidazol-2-yl)phenyl)-N-methyl-11H-pyrrolo[2,3-c]pyridine-4-carboxamide]
> 10 nM | CNC(=O)c1cnc(NC(=O)C2CC2)c2[nH]c(-c3c(F)cc(-n4nccn4)cc3OC3CC3)cc12 [Compound I-82, 7-(cyclopropanecarboxamido)-2-(2-cyclopropoxy-6-fluoro-4-(2H-1,2,3-triazol-2-yl)phenyl)-N-methyl-1H-pyrrolo[2,3-c]pyridine-4-carboxamide]
> 10 nM | CNC(=O)c1cnc(NC(=O)C2CC2)c2[nH]c(-c3ccc(OC)cc3[C@@H]3COCCO3)cc12 [Compound I-72]
1 to 10 nM | CNC(=O)c1cnc(NC(=O)C2CC2)c2[nH]c(-c3ccc(-c4nccn4C)cc3OC3CC3)cc12 [Compound I-57, 7-(cyclopropanecarboxamido)-2-(2-cyclopropoxy-4-(1-methyl-1H-imidazol-2-yl)phenyl)-N-methyl-11H-pyrrolo[2,3-c]pyridine-4-carboxamide]
< 0.2 nM | CNC(=O)c1cnc(NC(=O)C2CC2)c2[nH]c(-c3ccc(-c4ncc(C)n4C)cc3F)cc12 [Compound I-68, 7-(cyclopropanecarboxamido)-2-(4-(1,5-dimethyl-1H-imidazol-2-yl)-2-fluorophenyl)-N-methyl-1H-pyrrolo[2,3-c]pyridine-4-carboxamide]
0.2 to 1 nM | CNC(=O)c1cnc(NC(=O)C2CC2)c2[nH]c(-c3cccc(-c4nnn(C)n4)c3OC)cc12 [Compound I-59, 7-(cyclopropanecarboxamido)-2-(2-methoxy-3-(2-methyl-2H-tetrazol-5-yl)phenyl)-N-methyl-1H-pyrrolo[2,3-c]pyridine-4-carboxamide]
> 10 nM | CNC(=O)c1cnc(NC(=O)C2CC2)c2[nH]c(-c3ccc(-c4cn(C)nn4)cc3OC)cc12 [Compound I-64, 7-(cyclopropanecarboxamido)-2-(2-methoxy-4-(1-methyl-1H-1,2,3-triazol-4-yl)phenyl)-N-methyl-1H-pyrrolo[2,3-c]pyridine-4-carboxamide]
< 0.2 nM | CNC(=O)c1cnc(NC(=O)C2CC2)c2[nH]c(-c3cccc(-c4cn5c(n4)C(C)(C)OCC5)c3F)cc12 [Compound I-84, 7-(cyclopropanecarboxamido)-2-(3-(8,8-dimethyl-5,6-dihydro-8H-imidazo[2,1-c][1,4]oxazin-2-yl)-2-fluorophenyl)-N-methyl-1H-pyrrolo[2,3-c]pyridine-4-carboxamide]
< 0.2 nM | CNC(=O)c1cnc(NC(=O)C2CC2)c2[nH]c(-c3cccc(-c4cnc(C)o4)c3F)cc12 [Compound I-81, 7-(cyclopropanecarboxamido)-2-(2-fluoro-3-(2-methyloxazol-5-yl)phenyl)-N-methyl-1H-pyrrolo[2,3-c]pyridine-4-carboxamide]
0.2 to 1 nM | CCc1csc(-c2cc3c(C(=O)NC)cnc(NC(=O)C4CC4)c3[nH]2)n1 [Compound I-70, 7-(cyclopropanecarboxamido)-2-(4-ethylthiazol-2-yl)-N-methyl-1H-pyrrolo[2,3-c]pyridine-4-carboxamide]
< 0.2 nM | CCOc1cc(-c2nccn2C)cc(F)c1-c1cc2c(C(=O)NC)cnc(NC(=O)C3CC3)c2[nH]1 [Compound I-78, 7-(cyclopropanecarboxamido)-2-(2-ethoxy-6-fluoro-4-(1-methyl-1H-imidazol-2-yl)phenyl)-N-methyl-1H-pyrrolo[2,3-c]pyridine-4-carboxamide]
< 0.2 nM | CNC(=O)c1cnc(NC(=O)C2CC2)c2[nH]c(-c3cccc(-c4nc(C)n(C)n4)c3F)cc12 [Compound I-73, 7-(cyclopropanecarboxamido)-2-(3-(1,5-dimethyl-1H-1,2,4-triazol-3-yl)-2-fluorophenyl)-N-methyl-1H-pyrrolo[2,3-c]pyridine-4-carboxamide]
< 0.2 nM | CNC(=O)c1cnc(NC(=O)C2CC2)c2[nH]c(-c3ccc(-c4nc(C)c(C)n4C)cc3F)cc12 [Compound I-74, 7-(cyclopropanecarboxamido)-2-(2-fluoro-4-(1,4,5-trimethyl-1H-imidazol-2-yl)phenyl)-N-methyl-1H-pyrrolo[2,3-c]pyridine-4-carboxamide]
0.2 to 1 nM | CNC(=O)c1cnc(NC(=O)C2CC2)c2[nH]c(-c3cccc(-n4nccn4)c3F)cc12 [Compound I-63, 7-(cyclopropanecarboxamido)-2-(2-fluoro-3-(2H-1,2,3-triazol-2-yl)phenyl)-N-methyl-1H-pyrrolo[2,3-c]pyridine-4-carboxamide]
< 0.2 nM | CNC(=O)c1cnc(NC(=O)C2CC2)c2[nH]c(-c3ccc(-c4cnccn4)cc3F)cc12 [Compound I-66, 7-(cyclopropanecarboxamido)-2-(2-fluoro-4-(pyrazin-2-yl)phenyl)-N-methyl-1H-pyrrolo[2,3-c]pyridine-4-carboxamide]
0.2 to 1 nM | CNC(=O)c1cnc(NC(=O)C2CC2)c2[nH]c(-c3cccn(C4CCCOC4)c3=O)cc12 (stereo in doubt) [Compound I-55, (S)-7-(cyclopropanecarboxamido)-N-methyl-2-(2-oxo-1-(tetrahydro-2H-pyran-3-yl)-1,2-dihydropyridin-3-yl)-1H-pyrrolo[2,3-c]pyridine-4-carboxamide]
< 0.2 nM | CNC(=O)c1cnc(NC(=O)C2CC2)c2[nH]c(-c3cccc(-c4nc(C)cn4C)n3)cc12 [Compound I-49, 7-(cyclopropanecarboxamido)-2-(6-(1,4-dimethyl-1H-imidazol-2-yl)pyridin-2-yl)-N-methyl-1H-pyrrolo[2,3-c]pyridine-4-carboxamide]
0.2 to 1 nM | CNC(=O)c1cnc(NC(=O)C2CC2)c2[nH]c(-c3cccc(OC4CCOCC4)c3F)cc12 [Compound I-85, 7-(cyclopropanecarboxamido)-2-(2-fluoro-3-((tetrahydro-2H-pyran-4-yl)oxy)phenyl)-N-methyl-1H-pyrrolo[2,3-c]pyridine-4-carboxamide]
< 0.2 nM | CNC(=O)c1cnc(NC(=O)C2CC2)c2[nH]c(-c3c(F)cc(-c4nccn4C)cc3N3CCOCC3)cc12 [Compound I-86, 7-(cyclopropanecarboxamido)-2-(2-fluoro-4-(1-methyl-1H-imidazol-2-yl)-6-morpholinophenyl)-N-methyl-1H-pyrrolo[2,3-c]pyridine-4-carboxamide]
< 0.2 nM | CNC(=O)c1cnc(NC(=O)C2CC2)c2[nH]c(-c3ccc4nc(C)n(C)c4c3F)cc12 [Compound I-92, 7-(cyclopropanecarboxamido)-2-(7-fluoro-1,2-dimethyl-1H-benzo[d]imidazol-6-yl)-N-methyl-1H-pyrrolo[2,3-c]pyridine-4-carboxamide]
< 0.2 nM | CNC(=O)c1cnc(NC(=O)C2CC2)c2[nH]c(-c3cccc([C@H]4C[C@@H](OC)C4)c3F)cc12 [Compound I-91, 7-(cyclopropanecarboxamido)-2-(2-fluoro-3-((1s,3s)-3-methoxycyclobutyl)phenyl)-N-methyl-1H-pyrrolo[2,3-c]pyridine-4-carboxamide]
< 0.2 nM | CNC(=O)c1cnc(NC(=O)C2CC2)c2[nH]c(-c3cccc(C4=NC(C)(C)CO4)c3F)cc12 [Compound I-87, 7-(cyclopropanecarboxamido)-2-(3-(4,4-dimethyl-4,5-dihydrooxazol-2-yl)-2-fluorophenyl)-N-methyl-1H-pyrrolo[2,3-c]pyridine-4-carboxamide]
